Like-named read-outs stand apart in the source and are kept apart here.
Legend:
[1] = target: DYRK1A (Homo sapiens (Human), UniProt Q13627); assay: DYRK1A kinase assay (HotSpot, Reaction Biology); assay type: biochemical; settings: purified recombinant kinase, 10 μM ATP, room temperature 120 min
[2] = target: DYRK1B (Homo sapiens (Human), UniProt Q9Y463); assay: DYRK1B kinase assay (HotSpot, Reaction Biology); assay type: biochemical
[3] = purified recombinant kinase, 10 μM ATP, room temperature 120 min

Chain of DYRK1B (Q9Y463 whole entry): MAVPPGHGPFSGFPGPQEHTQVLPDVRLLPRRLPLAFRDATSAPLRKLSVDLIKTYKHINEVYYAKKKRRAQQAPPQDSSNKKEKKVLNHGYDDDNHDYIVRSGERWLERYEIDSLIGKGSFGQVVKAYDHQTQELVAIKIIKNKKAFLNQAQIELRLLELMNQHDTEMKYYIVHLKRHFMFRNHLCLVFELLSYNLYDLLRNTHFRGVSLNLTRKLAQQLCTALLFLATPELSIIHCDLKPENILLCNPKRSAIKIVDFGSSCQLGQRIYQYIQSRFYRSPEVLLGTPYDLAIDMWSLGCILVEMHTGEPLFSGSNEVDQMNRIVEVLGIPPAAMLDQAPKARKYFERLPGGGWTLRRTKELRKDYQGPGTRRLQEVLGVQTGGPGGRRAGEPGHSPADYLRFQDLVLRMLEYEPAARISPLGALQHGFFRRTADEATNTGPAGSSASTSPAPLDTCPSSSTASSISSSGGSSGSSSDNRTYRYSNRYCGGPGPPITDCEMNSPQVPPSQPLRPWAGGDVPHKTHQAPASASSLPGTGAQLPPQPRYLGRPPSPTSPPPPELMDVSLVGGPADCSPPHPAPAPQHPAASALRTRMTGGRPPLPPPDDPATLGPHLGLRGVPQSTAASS

Row | SMILES | IC50 [1] [nM] | IC50 [2, 3] [nM] | IC50 [2] [nM]
1 | COC(=N)c1nc2ccc3ncnc(Nc4ccc(Cl)cc4)c3c2s1 [Compound 56, Methyl 9-(4-chlorophenylamino)thiazolo[5,4-f]quinazoline-2-carbimidate] | 1.13 | 4.74 | 
2 | N=C(OCc1ccccc1)c1nc2ccc3ncnc(Nc4ccc5c(c4)OCO5)c3c2s1 [Compound 83, benzyl 9-(benzo[d][1,3]dioxol-5-ylamino)thiazolo[5,4-f]quinazoline-2-carbimidate] | 33.9 | 37.3 | 
3 | COC(=N)c1nc2ccc3ncnc(Nc4ccc(F)cc4Br)c3c2s1 [Compound 68, Methyl 9-(2-bromo-4-fluorophenylamino)thiazolo[5,4-f]quinazoline-2-carbimidate] | 0.16 | 0.24 | 
4 | COC(=N)c1nc2ccc3ncnc(Nc4ccc(F)cc4)c3c2s1 [Compound 66, Methyl 9-(4-fluorophenylamino)thiazolo[5,4-f]quinazoline-2-carbimidate] | 6.06 | 9.64 | 
5 | COC(=N)c1nc2ccc3ncnc(Nc4cccc(C#N)c4)c3c2s1 [Compound 67, Methyl 9-(3-cyanophenylamino)thiazolo[5,4-f]quinazoline-2-carbimidate] | 42.7 | 72 | 
6 | COC(=O)c1nc2ccc3ncnc(Nc4ccc(Cl)cc4Cl)c3c2s1 [Compound 89, methyl 9-((2,4-dichlorophenyl)amino)thiazolo[5,4-f]quinazoline-2-carboxylate] | 5.1 | 7.7 | 
7 | CC(C)(C)CNc1ncnc2ccc(-c3ccc4c(c3)OCO4)cc12 [NCGC-00189310, reference compound] | 2.2 | 20.6 | 
8 | CCOC(=N)c1nc2ccc3ncnc(Nc4ccc(Br)cc4F)c3c2s1 [Compound 81, Ethyl 9-(4-bromo-2-fluorophenylamino)thiazolo[5,4-f]quinazoline-2-carbimidate] | 33.2 | 34.4 | 
9 | COC(=N)c1nc2ccc3ncnc(Nc4cc(OC)c(OC)c(OC)c4)c3c2s1 [Compound 61, Methyl 9-(3,4,5-trimethoxyphenylamino)thiazolo[5,4-f]quinazoline-2-carbimidate] | 436 | 486 | 
10 | COC(=N)c1nc2ccc3ncnc(Nc4ccc(C(F)(F)F)cc4)c3c2s1 [Compound 80, Methyl 9-(4-(trifluoromethyl)phenylamino)thiazolo[5,4-f]quinazoline-2-carbimidate] | 18.3 | 25.2 | 
11 | COC(=N)c1nc2ccc3ncnc(Nc4ccc(OC)cc4)c3c2s1 [Compound 45, Methyl 9-(4-methoxyphenylamino)thiazolo[5,4-f]quinazoline-2-carbimidate] | 13.1 | 19.2 | 
12 | C#Cc1cccc(Nc2ncnc3ccc4nc(C(=N)OC)sc4c23)c1 [Compound 58, Methyl 9-(3-ethynylphenylamino)thiazolo[5,4-f]quinazoline-2-carbimidate] | 40.8 | 46.3 | 
13 | COC(=N)c1nc2ccc3ncnc(Nc4ccc(C#N)cc4)c3c2s1 [Compound 70, Methyl 9-(4-cyanophenylamino)thiazolo[5,4-f]quinazoline-2-carbimidate] | 3.89 | 7.69 | 
14 | COC(=N)c1nc2ccc3ncnc(Nc4ccc(O)c(F)c4)c3c2s1 [Compound 79, Methyl 9-(3-fluoro-4-hydroxyphenylamino)thiazolo[5,4-f]quinazoline-2-carbimidate] | 8.63 | 11 | 
15 | CC(C)OC(=N)c1nc2ccc3ncnc(Nc4ccc5c(c4)OCO5)c3c2s1 [Compound 85, isopropyl 9-(benzo[d][1,3]dioxol-5-ylamino)thiazolo[5,4-f]quinazoline-2-carbimidate] | 125 |  | 218
16 | COC(=N)c1nc2ccc3ncnc(Nc4ccc(N(C)C)cc4)c3c2s1 [Compound 76, Methyl 9-(4-(dimethylamino)phenylamino)thiazolo[5,4-f]quinazoline-2-carbimidate] | 35.6 | 64.3 | 
17 | NC(=O)c1nc2ccc3ncnc(Nc4ccc(Cl)cc4Cl)c3c2s1 [Compound 87, 9-((2,4-dichlorophenyl)amino)thiazolo[5,4-f]quinazoline-2-carboxamide] | 34.9 | 43.4 | 
18 | COC(=N)c1nc2ccc3ncnc(Nc4cc(Br)c5c(c4)OCO5)c3c2s1 [Compound 47, Methyl 9-(7-bromobenzo[d][1,3]dioxol-5-ylamino)thiazolo[5,4-f]quinazoline-2-carbimidate] | 2.76 | 3.66 | 
19 | COC(=N)c1nc2ccc3ncnc(Nc4ccc(C(C)(C)C)cc4)c3c2s1 [Compound 74, Methyl 9-(4-tert-butylphenylamino)thiazolo[5,4-f]quinazoline-2-carbimidate] | 39 | 93.8 | 
20 | COC(=N)c1nc2ccc3ncnc(Nc4ccc(Br)cc4F)c3c2s1 [Compound 44, Methyl 9-(4-bromo-2-fluorophenylamino)thiazolo[5,4-f]quinazoline-2-carbimidate] | 3.6 |  | 6.55

Source: patent US9446044B2, “DYRK1 inhibitors and uses thereof” (DIAXONHIT, priority 2011, dated 2016)
